In ChEMBL document CHEMBL1158300, “New Cephalotaxus Alkaloids from Cephalotaxus harringtonia var. drupacea” (J Nat Prod, 1996) one finds IC50 data, which are given here for three molecules.

The structures appear in SMILES notation. Converted amounts (≈) assume the structure as drawn.

The experiment deals with P388. The experiment is described as follows: Cytotoxicity against mouse P388 cells. The class given is functional, cell-based.
With `COC(=O)C[C@](O)(CC(C)C)C(=O)O[C@@H]1C(OC)=C[C@]23CCCN2CCc2cc4c(cc2[C@H]13)OCO4` [NORDEOXYHARRINGTONINE], the half-inhibitory concentration (IC50) is 0.027 µg/mL (≈ 0.0538 µM).

In turn, `COC(=O)C[C@](O)(CCCC(C)C)C(=O)O[C@@H]1C(OC)=C[C@]23CCCN2CCc2cc4c(cc2[C@H]13)OCO4` [HOMODEOXYHARRINGTONINE] gave an IC50 of 0.056 µg/mL (≈ 0.106 µM).

For the molecule `COC(=O)C[C@](O)(CCCCC(C)C)C(=O)O[C@@H]1C(OC)=C[C@]23CCCN2CCc2cc4c(cc2[C@H]13)OCO4` [BISHOMODEOXYHARRINGTONINE], half-maximal inhibition (IC50) required 0.024 µg/mL (≈ 0.0441 µM).
